Laboratory results taken from ChEMBL document CHEMBL3286266, “Development of novel benzomorpholine class of diacylglycerol acyltransferase I inhibitors” (ACS Med Chem Lett, 2014).
pIC50: −log10 of the molar value. ≈ marks a conversion by molar mass, not a printed value.

Molecular target: T1, Diacylglycerol O-acyltransferase 1 (Mus musculus, UniProt Q9Z2A7)
T1 sequence (Q9Z2A7 whole entry): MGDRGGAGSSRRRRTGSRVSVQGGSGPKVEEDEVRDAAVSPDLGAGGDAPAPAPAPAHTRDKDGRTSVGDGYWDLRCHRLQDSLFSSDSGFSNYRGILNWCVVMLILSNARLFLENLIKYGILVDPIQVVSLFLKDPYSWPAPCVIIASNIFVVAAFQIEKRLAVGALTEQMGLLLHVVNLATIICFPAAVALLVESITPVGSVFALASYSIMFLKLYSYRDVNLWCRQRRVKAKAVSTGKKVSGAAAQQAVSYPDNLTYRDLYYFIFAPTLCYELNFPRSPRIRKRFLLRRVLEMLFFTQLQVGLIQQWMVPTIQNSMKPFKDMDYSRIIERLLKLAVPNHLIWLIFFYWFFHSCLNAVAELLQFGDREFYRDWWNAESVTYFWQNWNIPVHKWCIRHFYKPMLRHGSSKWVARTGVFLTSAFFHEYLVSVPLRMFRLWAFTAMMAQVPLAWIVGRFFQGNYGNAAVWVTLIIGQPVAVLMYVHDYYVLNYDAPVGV
Assay: Inhibition of mouse DGAT1 expressed in Sf9 insect cells using 1,2-dioleoyl-sn-glycerol and [14C]-palmitoyl-CoA substrate by scintillation counting analysis
Conditions: not given

pIC50	SMILES
7.30	CCc1ccccc1NC(=O)N1CC(C)Oc2cc(-c3ccc([C@H]4CC[C@H](CC(=O)O)CC4)cc3)ccc21 (stereo not given in full)
< 5.00	O=C(O)C[C@H]1CC[C@H](c2ccc(-c3ccc4c(c3)OCCN4S(=O)(=O)Cc3ccccc3)cc2)CC1
6.80	O=C(O)C[C@H]1CC[C@H](c2ccc(-c3ccc4c(c3)OCCN4C(=O)NC3CCCCC3)cc2)CC1
6.20	CC1COc2cc(-c3ccc([C@H]4CC[C@H](CC(=O)O)CC4)cc3)ccc2N1C(=O)Nc1ccccc1 (stereo not given in full)
6.70	CC(C(=O)O)[C@H]1CC[C@H](c2ccc(-c3ccc4c(c3)OCCN4C(=O)Nc3ccccc3)cc2)CC1 (stereo not given in full)
7.47	CCOc1ccc(NC(=O)N2CCOc3cc(-c4ccc([C@H]5CC[C@H](CC(=O)O)CC5)cc4)ccc32)cc1
5.92	O=C(O)C[C@H]1CC[C@H](c2ccc(-c3ccc4c(c3)OCCN4C(=O)Nc3cc(C(F)(F)F)ccc3F)cc2)CC1
< 5.00	O=C(O)C[C@H]1CC[C@H](c2ccc(-c3ccc4c(c3)OCCN4C(=O)Nc3ccccc3C(=O)O)cc2)CC1
7.35	CCC1CN(C(=O)Nc2ccccc2)c2ccc(-c3ccc([C@H]4CC[C@H](CC(=O)O)CC4)cc3)cc2O1 (stereo not given in full)
7.44	O=C(O)C[C@H]1CC[C@H](c2ccc(-c3ccc4c(c3)OCCN4C(=O)NCCCCc3ccccc3)cc2)CC1
7.35	O=C(O)C[C@H]1CC[C@@H](c2ccc(-c3ccc4c(c3)OCCN4C(=O)Nc3ccccc3)cc2)CC1
5.28	Nc1ccccc1NC(=O)N1CCOc2cc(-c3ccc([C@H]4CC[C@H](CC(=O)O)CC4)cc3)ccc21
6.08	O=C(O)[C@@H]1CCC[C@H]1C(=O)c1ccc(-c2ccc3c(c2)OCCN3C(=O)Nc2ccccc2)cc1
7.48	CC1CN(C(=O)Nc2ccccc2)c2ccc(-c3ccc([C@H]4CC[C@H](CC(=O)O)CC4)cc3)cc2O1 (stereo not given in full)
6.04	O=C(C[C@H]1CC[C@H](c2ccc(-c3ccc4c(c3)OCCN4C(=O)Nc3ccccc3)cc2)CC1)NO
7.16	CC(C)c1ccccc1NC(=O)N1CCOc2cc(-c3ccc([C@H]4CC[C@H](CC(=O)O)CC4)cc3)ccc21
6.96	CCC1CN(C(=O)Nc2ccccc2)c2ccc(-c3ccc(OCC4(C(=O)O)CCC4)nc3)cc2O1 (stereo not given)

Organism: Homo sapiens
Assay: Selectivity for human DGAT1 over human ACAT
Conditions: not given

Selectivity ratio	SMILES
100	O=C(O)C[C@H]1CC[C@H](c2ccc(-c3ccc4c(ccn4C(=O)Nc4ccccc4)c3)cc2)CC1

System: Mus musculus
Assay: Reduction in triglycerides level in mouse at 10 mg/kg, po after 2 hrs by postprandial triglyceride assay
Type: functional
Conditions: not given

SMILES	inhibition in vivo at 10 mg/kg
O=C(O)C[C@H]1CC[C@H](c2ccc(-c3ccc4c(ccn4C(=O)Nc4ccccc4)c3)cc2)CC1	45%
O=C(O)C[C@H]1CC[C@H](c2ccc(-c3ccc4c(c3)OCCN4C(=O)Nc3ccccc3)cc2)CC1	52%
CCC1CN(C(=O)Nc2ccccc2)c2ccc(-c3ccc([C@H]4CC[C@H](CC(=O)O)CC4)cc3)cc2O1 (stereo not given in full)	88%
O=C(O)C[C@H]1CC[C@H](c2ccc(-c3ccc4c(c3)OCCN4C(=O)NCCCCc3ccccc3)cc2)CC1	23%
CC1CN(C(=O)Nc2ccccc2)c2ccc(-c3ccc([C@H]4CC[C@H](CC(=O)O)CC4)cc3)cc2O1 (stereo not given in full)	85%

System: not listed separately
Assay: Clearance in rat liver hepatocytes measured per million cells
Type: ADME, cell-based, Hepatocyte
Conditions: read-out: CLH

hepatocyte CLint	SMILES
3.9 µL/min/1e6 cells	O=C(O)C[C@H]1CC[C@H](c2ccc(-c3ccc4c(ccn4C(=O)Nc4ccccc4)c3)cc2)CC1

Molecular target: T2, Diacylglycerol O-acyltransferase 1 (Homo sapiens, UniProt O75907)
T2 sequence (O75907 whole entry): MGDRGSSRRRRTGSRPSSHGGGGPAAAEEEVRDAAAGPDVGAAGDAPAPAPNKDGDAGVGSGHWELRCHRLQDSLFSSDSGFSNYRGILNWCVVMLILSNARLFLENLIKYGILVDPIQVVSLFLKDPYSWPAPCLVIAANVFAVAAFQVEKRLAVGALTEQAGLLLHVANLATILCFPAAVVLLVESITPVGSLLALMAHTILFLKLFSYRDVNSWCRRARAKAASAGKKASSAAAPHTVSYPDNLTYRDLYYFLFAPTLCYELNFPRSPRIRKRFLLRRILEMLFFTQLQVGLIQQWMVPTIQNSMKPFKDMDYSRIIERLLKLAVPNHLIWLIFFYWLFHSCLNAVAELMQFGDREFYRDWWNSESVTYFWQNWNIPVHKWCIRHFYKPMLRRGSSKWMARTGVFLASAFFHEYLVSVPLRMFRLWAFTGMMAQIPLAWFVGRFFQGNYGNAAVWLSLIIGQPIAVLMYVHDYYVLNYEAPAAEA
Assay: Inhibition of human DGAT1 expressed in Sf9 insect cells using 1,2-dioleoyl-sn-glycerol and [14C]-palmitoyl-CoA substrate by scintillation counting analysis
Conditions: not given

pIC50	SMILES
6.96	CCc1ccccc1NC(=O)N1CC(C)Oc2cc(-c3ccc([C@H]4CC[C@H](CC(=O)O)CC4)cc3)ccc21 (stereo not given in full)
< 5.00	O=C(O)C[C@H]1CC[C@H](c2ccc(-c3ccc4c(c3)OCCN4S(=O)(=O)Cc3ccccc3)cc2)CC1
< 5.00	O=C(O)C[C@H]1CC[C@H](c2ccc(-c3ccc4c(c3)OCCN4C(=O)Nc3ccccc3C(=O)O)cc2)CC1
7.28	O=C(O)C[C@H]1CC[C@@H](c2ccc(-c3ccc4c(c3)OCCN4C(=O)Nc3ccccc3)cc2)CC1
7.04	CC1CN(C(=O)Nc2ccccc2)c2ccc(-c3ccc([C@H]4CC[C@H](CC(=O)O)CC4)cc3)cc2O1 (stereo not given in full)

Molecular target: T3, Sterol O-acyltransferase 2 (Homo sapiens, UniProt O75908)
T3 sequence (O75908 whole entry): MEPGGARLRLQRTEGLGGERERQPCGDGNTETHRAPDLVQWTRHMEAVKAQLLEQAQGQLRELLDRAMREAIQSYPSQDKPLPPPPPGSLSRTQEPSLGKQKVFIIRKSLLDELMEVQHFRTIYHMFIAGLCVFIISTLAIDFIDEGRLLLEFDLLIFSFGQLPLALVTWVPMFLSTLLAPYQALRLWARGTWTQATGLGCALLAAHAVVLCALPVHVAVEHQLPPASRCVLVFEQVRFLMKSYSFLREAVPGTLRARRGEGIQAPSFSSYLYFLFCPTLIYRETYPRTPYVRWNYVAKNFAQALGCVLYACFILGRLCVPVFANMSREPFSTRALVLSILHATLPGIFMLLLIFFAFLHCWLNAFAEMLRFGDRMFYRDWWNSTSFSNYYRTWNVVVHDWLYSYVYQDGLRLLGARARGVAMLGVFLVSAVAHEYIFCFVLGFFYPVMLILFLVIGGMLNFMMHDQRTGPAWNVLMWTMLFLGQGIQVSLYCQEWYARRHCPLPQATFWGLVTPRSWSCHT
Assay: Inhibition of human ACAT2 expressed in Sf9 insect cells using [14C]-oleoyl-CoA by scintillation counting analysis
Conditions: not given

pIC50	SMILES
5.30	CC1CN(C(=O)Nc2ccccc2)c2ccc(-c3ccc([C@H]4CC[C@H](CC(=O)O)CC4)cc3)cc2O1 (stereo not given in full)

System: not listed separately
Assay: AUC in mouse at 10 mg/kg
Type: ADME, organism-based
Parameters: dose 10 mg/kg
Conditions: plasma

AUC	SMILES
63 µM·h	CCC1CN(C(=O)Nc2ccccc2)c2ccc(-c3ccc([C@H]4CC[C@H](CC(=O)O)CC4)cc3)cc2O1 (stereo not given in full)
79 µM·h	CC1CN(C(=O)Nc2ccccc2)c2ccc(-c3ccc([C@H]4CC[C@H](CC(=O)O)CC4)cc3)cc2O1 (stereo not given in full)

System: not listed separately
Assay: Permeability in human Caco2 cells
Type: ADME, cell-based
Conditions: Caco-2, read-out: permeability

Papp	SMILES
17 ×10⁻⁶ cm/s	O=C(O)C[C@H]1CC[C@H](c2ccc(-c3ccc4c(ccn4C(=O)Nc4ccccc4)c3)cc2)CC1

Organism: Homo sapiens
Assay: Selectivity for human DGAT1 over human DGAT2
Conditions: not given

Selectivity ratio	SMILES
100	O=C(O)C[C@H]1CC[C@H](c2ccc(-c3ccc4c(ccn4C(=O)Nc4ccccc4)c3)cc2)CC1

Molecular target: T4, CYP1A1 (Homo sapiens, UniProt P04798)
T4 sequence (P04798 whole entry): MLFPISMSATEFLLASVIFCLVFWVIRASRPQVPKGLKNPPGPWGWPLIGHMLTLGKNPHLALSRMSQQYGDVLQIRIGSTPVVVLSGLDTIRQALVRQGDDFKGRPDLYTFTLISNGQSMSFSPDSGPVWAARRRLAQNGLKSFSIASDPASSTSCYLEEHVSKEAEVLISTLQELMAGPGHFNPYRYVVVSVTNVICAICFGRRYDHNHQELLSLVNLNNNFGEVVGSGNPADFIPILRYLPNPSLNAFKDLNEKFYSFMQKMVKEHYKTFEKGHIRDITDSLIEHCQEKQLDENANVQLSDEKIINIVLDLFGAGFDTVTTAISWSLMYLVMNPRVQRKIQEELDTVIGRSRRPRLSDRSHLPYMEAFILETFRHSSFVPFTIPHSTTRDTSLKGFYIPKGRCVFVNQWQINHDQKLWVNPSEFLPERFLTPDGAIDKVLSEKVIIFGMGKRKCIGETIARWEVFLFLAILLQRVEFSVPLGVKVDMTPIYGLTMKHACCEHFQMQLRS
Assay: Induction of CYP1A1 (unknown origin) at 30 uM relative to control
Type: ADME
Conditions: read-out: FC

fold induction at 30 µM	SMILES
3	O=C(O)C[C@H]1CC[C@H](c2ccc(-c3ccc4c(ccn4C(=O)Nc4ccccc4)c3)cc2)CC1

System: Mus musculus
Assay: Reduction in triglycerides level in mouse at 3 mg/kg, po after 2 hrs by postprandial triglyceride assay
Type: functional
Conditions: not given

SMILES	inhibition in vivo at 3 mg/kg
CCc1ccccc1NC(=O)N1CC(C)Oc2cc(-c3ccc([C@H]4CC[C@H](CC(=O)O)CC4)cc3)ccc21 (stereo not given in full)	92%
O=C(O)C[C@H]1CC[C@@H](c2ccc(-c3ccc4c(c3)OCCN4C(=O)Nc3ccccc3)cc2)CC1	2%

System: not listed separately
Assay: Clearance in human liver hepatocytes measured per million cells
Type: ADME, cell-based, Hepatocyte
Conditions: read-out: CLH

hepatocyte CLint	SMILES
7.6 µL/min/1e6 cells	O=C(O)C[C@H]1CC[C@H](c2ccc(-c3ccc4c(ccn4C(=O)Nc4ccccc4)c3)cc2)CC1

System: not listed separately
Assay: Solubility of the compound
Type: physicochemical
Conditions: not given

solubility	SMILES
20 µM (≈ 9.05 µg/mL)	O=C(O)C[C@H]1CC[C@H](c2ccc(-c3ccc4c(ccn4C(=O)Nc4ccccc4)c3)cc2)CC1

System: not listed separately
Assay: Metabolic stability in human plasma assessed as compound loss measured at 12 hrs at 25 degC
Type: ADME, cell-free
Conditions: read-out: Drug metabolism

metabolised at 12 h	SMILES
10%	O=C(O)C[C@H]1CC[C@H](c2ccc(-c3ccc4c(c3)OCCN4C(=O)Nc3ccccc3)cc2)CC1
